Publication PMC6364417, “Kinase inhibitor library screening identifies synergistic drug combinations effective in sensitive and resistant melanoma cells” (Journal of Experimental & Clinical Cancer Research : CR, 2019)

Key:
Assay in all cases: Kinase inhibitor library screening, PrestoBlue cell viability, 1 or 10 μM, 72 h
IGR37 cells (parental) = conditions: IGR37 Parental, 72 h
[1] = test system: IGR37-XP cells (Vemurafenib-resistant); conditions: IGR37 XP, 72 h
501Mel cells (parental) = conditions: 501Mel Parental, 72 h
Method in brief: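 Two concentrations of every kinase inhibitor were tested on each melanoma line and its resistant counterparts, and cell survival was quantified by PrestoBlue against untreated wells.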

[2] = test system: 501Mel-XP cells (Vemurafenib-resistant); conditions: 501Mel XP, 72 h
[3] = test system: IGR37-GP cells (Dabrafenib-resistant); conditions: IGR37 GP, 72 h
[4] = test system: A375-GP cells (Dabrafenib-resistant); conditions: A375 GP, 72 h
A375 cells (parental) = conditions: A375 Parental, 72 h
[5] = test system: A375-XP cells (Vemurafenib-resistant); conditions: A375 XP, 72 h
[6] = test system: 501Mel-GP cells (Dabrafenib-resistant); conditions: 501Mel GP, 72 h

In the case of `COc1cccc2cc(-c3nc([C@H]4CC[C@H](C(=O)O)CC4)n4ncnc(N)c34)[nH]c12` [OSI-027], the “Cell viability in kinase inhibitor library screening, IGR37 Parental, 1μΜ” value (IGR37 cells (parental); 1μΜ, in %) is reported as 84.3, the “Cell viability in kinase inhibitor library screening, IGR37 Parental, 10μΜ” value (IGR37 cells (parental); 10μΜ, in %) is reported as 46.6 and the “Cell viability in kinase inhibitor library screening, IGR37 XP, 1μΜ” value ([1]; 1μΜ, in %) is reported as 72.2. For the same compound, the “Cell viability in kinase inhibitor library screening, 501Mel Parental, 1μΜ” value (501Mel cells (parental); 1μΜ, in %) was 74.7, the “Cell viability in kinase inhibitor library screening, 501Mel Parental, 10μΜ” value (501Mel cells (parental); 10μΜ, in %) was 14.4 and the “Cell viability in kinase inhibitor library screening, 501Mel XP, 1μΜ” value ([2]; 1μΜ, in %) was 55.5. For the same compound, the “Cell viability in kinase inhibitor library screening, 501Mel XP, 10μΜ” value ([2]; 10μΜ, in %) was 6.8, the Cell viability in kinase inhibitor library screening, IGR37 GP, 10μΜ ([3]; 10μΜ) was 40% and the “Cell viability in kinase inhibitor library screening, IGR37 GP, 1μΜ” value ([3]; 1μΜ, in %) was 81.3. The “Cell viability in kinase inhibitor library screening, A375 GP, 1μΜ” value ([4]; 1μΜ) was 62.5, the “Cell viability in kinase inhibitor library screening, A375 GP, 10μΜ” value ([4]; 10μΜ) was 21.4 and the “Cell viability in kinase inhibitor library screening, A375 Parental, 10μΜ” value (A375 cells (parental); 10μΜ) was 24.3. For the same compound, the “Cell viability in kinase inhibitor library screening, A375 Parental, 1μΜ” value (A375 cells (parental); 1μΜ) was 72.3, the “Cell viability in kinase inhibitor library screening, A375 XP, 1μΜ” value ([5]; 1μΜ) was 55.5 and the “Cell viability in kinase inhibitor library screening, A375 XP, 10μΜ” value ([5]; 10μΜ) was 19.1. For the same compound, the “Cell viability in kinase inhibitor library screening, 501Mel GP, 1μΜ” value ([6]; 1μΜ, in %) was 59.2 and the “Cell viability in kinase inhibitor library screening, 501Mel GP, 10μΜ” value ([6]; 10μΜ, in %) was 13.9.
For `C#Cc1cccc(Nc2ncnc3cc(OCCOC)c(OCCO)cc23)c1` [OSI-420 (Desmethyl Erlotinib)], the “cell viability, IGR37 Parental, 1μΜ” value (IGR37 cells (parental); 1μΜ, in %) was 108.5, the “cell viability, IGR37 Parental, 10μΜ” value (IGR37 cells (parental); 10μΜ, in %) was 104.1 and the cell viability, IGR37 XP, 10μΜ ([1]; 10μΜ) was 45.3%. For the same compound, the “cell viability, IGR37 XP, 1μΜ” value ([1]; 1μΜ, in %) was 83.7, the “cell viability, 501Mel Parental, 1μΜ” value (501Mel cells (parental); 1μΜ, in %) was 109.3 and the “cell viability, 501Mel Parental, 10μΜ” value (501Mel cells (parental); 10μΜ, in %) was 100.2. For the same compound, the “cell viability, 501Mel XP, 1μΜ” value ([2]; 1μΜ, in %) was 117.2, the “cell viability, 501Mel XP, 10μΜ” value ([2]; 10μΜ, in %) was 44.4 and the cell viability, IGR37 GP, 10μΜ ([3]; 10μΜ) was 81.4%. For the same compound, the “cell viability, IGR37 GP, 1μΜ” value ([3]; 1μΜ, in %) was 91.6, the “cell viability, A375 GP, 1μΜ” value ([4]; 1μΜ, in %) was 96.7 and the “cell viability, A375 GP, 10μΜ” value ([4]; 10μΜ, in %) was 88.2. The “cell viability, A375 Parental, 10μΜ” value (A375 cells (parental); 10μΜ, in %) was 54.9, the “cell viability, A375 XP, 10μΜ” value ([5]; 10μΜ, in %) was 79.2 and the “cell viability, 501Mel GP, 1μΜ” value ([6]; 1μΜ, in %) was 106.0. For the same compound, the “cell viability, 501Mel GP, 10μΜ” value ([6]; 10μΜ, in %) was 79.2.
With `O=C(Nc1ccc(OC(F)(F)F)cc1)c1sccc1NCc1ccnc2ccccc12` [OSI-930] the “cell viability (kinase inhibitor library screening)” value (IGR37 cells (parental); 1μΜ) was 96.0%, the “cell viability (kinase inhibitor library screening)” value (IGR37 cells (parental); 10μΜ) was 89.7% and the “cell viability (kinase inhibitor library screening)” value ([1]; 1μΜ) was 100.2%. The “cell viability (kinase inhibitor library screening)” value ([1]; 10μΜ) was 70.0%, the “cell viability (kinase inhibitor library screening)” value (501Mel cells (parental); 1μΜ) was 100.2% and the “cell viability (kinase inhibitor library screening)” value (501Mel cells (parental); 10μΜ) was 85.8%. The “cell viability (kinase inhibitor library screening)” value ([2]; 1μΜ) was 92.9%, the “cell viability (kinase inhibitor library screening)” value ([2]; 10μΜ) was 73.6% and the “cell viability (kinase inhibitor library screening)” value ([3]; 1μΜ) was 88.5%. For the same compound, the “cell viability (kinase inhibitor library screening)” value ([3]; 10μΜ) was 90.3%, the “cell viability (kinase inhibitor library screening)” value ([4]; 1μΜ) was 86.8% and the “cell viability (kinase inhibitor library screening)” value ([4]; 10μΜ) was 55.3%. The “cell viability (kinase inhibitor library screening)” value (A375 cells (parental); 10μΜ) was 77.6%, the “cell viability (kinase inhibitor library screening)” value (A375 cells (parental); 1μΜ) was 97.9% and the “cell viability (kinase inhibitor library screening)” value ([5]; 1μΜ) was 93.4%. For the same compound, the “cell viability (kinase inhibitor library screening)” value ([5]; 10μΜ) was 71.6%, the “cell viability (kinase inhibitor library screening)” value ([6]; 1μΜ) was 96.5% and the “cell viability (kinase inhibitor library screening)” value ([6]; 10μΜ) was 73.5%.
`NCC(=O)Nc1ccc(-n2nc(C(F)(F)F)cc2-c2ccc3c(ccc4ccccc43)c2)cc1` [OSU-03012] was tested, and the “Cell viability in kinase inhibitor library screening, IGR37 Parental, 10μΜ” value (IGR37 cells (parental); 10μΜ, in %) was 0.5, the Cell viability in kinase inhibitor library screening, IGR37 XP, 10μΜ ([1]; 10μΜ) was 1.4% and the “Cell viability in kinase inhibitor library screening, IGR37 XP, 1μΜ” value ([1]; 1μΜ, in %) was 109.9. For the same compound, the “Cell viability in kinase inhibitor library screening, 501Mel Parental, 1μΜ” value (501Mel cells (parental); 1μΜ, in %) was 91.0, the “Cell viability in kinase inhibitor library screening, 501Mel Parental, 10μΜ” value (501Mel cells (parental); 10μΜ, in %) was 0.3 and the “Cell viability in kinase inhibitor library screening, 501Mel XP, 1μΜ” value ([2]; 1μΜ, in %) was 90.0. For the same compound, the “Cell viability in kinase inhibitor library screening, 501Mel XP, 10μΜ” value ([2]; 10μΜ, in %) was -0.352, the Cell viability in kinase inhibitor library screening, IGR37 GP, 10μΜ ([3]; 10μΜ) was 2.3% and the “Cell viability in kinase inhibitor library screening, IGR37 GP, 1μΜ” value ([3]; 1μΜ, in %) was 99.0. The “Cell viability in kinase inhibitor library screening, A375 GP, 1μΜ” value ([4]; 1μΜ) was 89.7, the “Cell viability in kinase inhibitor library screening, A375 GP, 10μΜ” value ([4]; 10μΜ) was 0.547 and the “Cell viability in kinase inhibitor library screening, A375 Parental, 10μΜ” value (A375 cells (parental); 10μΜ) was 0.756. For the same compound, the “Cell viability in kinase inhibitor library screening, A375 Parental, 1μΜ” value (A375 cells (parental); 1μΜ) was 91.6, the “Cell viability in kinase inhibitor library screening, A375 XP, 1μΜ” value ([5]; 1μΜ) was 91.6 and the “Cell viability in kinase inhibitor library screening, A375 XP, 10μΜ” value ([5]; 10μΜ) was 0.7. For the same compound, the “Cell viability in kinase inhibitor library screening, 501Mel GP, 1μΜ” value ([6]; 1μΜ, in %) was 94.0 and the “Cell viability in kinase inhibitor library screening, 501Mel GP, 10μΜ” value ([6]; 10μΜ, in %) was -0.274.
